Patent US20240342121A1, “THE USE OF BETA-HYDROXYBUTYRATES FOR THE TREATMENT OR PREVENTION OF ANEURYSMS AND DISSECTIONS” (priority 2021, published 2024)
“Also recorded” adds a separate entry of the source.

Columns and labels:
[1] = tested on: aortic dissection (TAD, AAD); experiment: BAPN + AngII mouse model of aortic dissection; assay type: in vivo
Protocol: (§1) (a) schematic description of aortic dissection model and ketone treatment. Five-week-old C57BL/6 mice were continuously treated with β-aminopropionitrile (BAPN, 3 g/L/day in drinking water) for 28 days. To test the impacts of ketone body, BAPN-treated mice at day 17 to day 31 were given ketone ester (KE, D-BHB 1-3 butanediol monoester) (20 g/L and 50 gL at 5 mL per day) in drinking water. Further, the BAPN-treated mice, with or without ketone treatment, were continuously infused with angiotensin (AngII, 1.44 mg/kg/day) for three days via subcutaneously implanted osmotic pumps). Three days after AngII infusion, the mice were euthanized to assay for aortic dissection.
as §1, with “Five week old C57BL/6” for “(a) schematic description of aortic dissection model and ketone treatment. Five-week-old C57BL/6”, “drinking water))” for “drinking water)”, “50 g/L)” for “50 gL at 5 mL per day)”, “euthanized for” for “euthanized to”, “assay” for “assay for”

CaCl2-induced AAA = CaCl2-induced AAA animal model, post-treatment; assay type: in vivo, mouse
Protocol: FIGS. 5A-5J. (a) Representative image of aorta which developed CaCl2)-induced AAA, and post-treated with KD, KE, βHB, s-βHB, or ABT-737. KD is provided to mice for 4 weeks, KE is administrated with drinking water, βHB, s-βHB or ABT-737 are IP injected for 2 weeks with 48h intervals. (b) Incidence of AAA by CaCl2) treatment and proportion of mice recovered from the AAA after post-treatment of KD, KE, βHB and s-βHB for 2 weeks. (c) Time-dependent observation of inner diameter after CaCl2) treatment and post-treatment of KD or KE (28˜56 days after surgery). (d) Comparison of ultrasound images of CaCl2)-induced AAA to the identical aorta post-treated with βHB for 2 weeks. (e) H&E staining of aorta from the mice developed with CaCl2)-induced AAA, and post-treated with KD, KE, βHB, and s-βHB. (f) SA β-Gal activity assay on aorta which developed CaCl2)-induced AAA, and post-treated with KD, KE, βHB, s-βHB, or ABT-737. (g) Quantitation of senescent area on aorta developed with CaCl2)-induced AAA, and post-treated with KD, KE, βHB, s-βHB. (h) Verhoeff Van Gieson/EVG staining of abdominal aorta developed with CaCl2)-induced AAA, post-treated with KD, KE, βHB and s-βHB. (i) Average number of elastic fibers on abdominal aorta presented at FIG. 5H. (j) Measurement of Pulse Wave Velocity (PWV) on CaCl2)-infused mice with post-treatment of KD, KE, βHB, and s-βHB.
(§2) To confirm the possibility that the therapeutic effect of βHB on AAA is not only applied to AII-induced AAA, the CaCl2)-induced AAA animal model was also examined as well (FIG. 5A).
To further validate the therapeutic efficacy of s-βHB on aneurysms, we used a CaCl2-induced AAA animal model as well as an angiotensin II infusion model. […] Two-way ANOVA, s-βHB vs βHB, #P<0.01, n=10. Since the elimination of senescent SMCs is critical for the recovery of AAA, we investigated that s-βHB is also effective to remove senescent cells in CaCl2)-induced aneurysms. […] Student's T-test for s-βHB vs βHB, ^#P<0.05, n=8.

[2] = Soto-Mota et al. 2019; cited from earlier work
[3] = Metabolic alterations by post-treatment; assay type: in vivo, mouse; conditions: four weeks, FIG. 7
Excerpt: In order to identify the primary factors for reversing AAA formation, metabolic alterations by post-treatment were investigated. […] Thus, abnormal lipid metabolism caused by KD is unlikely required or helpful for AAA recovery.

[4] = tested on: angiotensin II (AII)-induced AAA; experiment: AII-induced AAA mouse model, post-treatment; assay type: in vivo
Excerpt: To determine if senescence is a major cause of aneurysm development, the association between senescence and aneurysms using the angiotensin II (AII)-induced AAA model was investigated. Mice were infused AII for four weeks using osmotic mini-pump implantation into Apoe^−/− transgenic mouse.
To investigate the therapeutic potential of ketotherapy for abdominal aortic aneurysm (AAA), Ketogenic-diet (KD) and Ketone-ester (KE) were provided to angiotensin II (AII)-induced mouse model of AAA (FIG. 6). […] After completing AII infusion, the mice were post-treated with KD and KE for two to four weeks.
To investigate the time-dependent reduction of aorta diameter, the inner diameter of the aorta using ultrasound analysis was measured.

[5] = tested on: AII-induced AAA development; experiment: Pretreatment with ketotherapy in AII-induced AAA; assay type: in vivo, mouse; conditions: FIG. 8A-C
Excerpt: Senescence is considered to be major risk factor that promotes AAA development. […] To determine whether vascular senescence is critical for AAA formation, senescence was prevented by pretreatment with ketotherapy.
as §2

[6] = tested on: angiotensin II (AII)-induced AAA; experiment: AII-induced AAA mouse model, post-treatment; assay type: in vivo; conditions: injection every other day for two weeks, FIG. 2E
normal SMCs (NC) = experiment: Caspase 3 activity assay on normal SMCs; assay type: cell-based; conditions: FIG. 2I
Protocol: FIGS. 2A-2L. (a) Cytotoxicity assay of normal smooth muscle cells (NS) and senescent smooth muscle cells (SMCs). Replicative senescent SMCs (RS) and premature senescent SMCs, stimulated by H2O2 (HP), arsenic (Ars), and Nutlin 3a (Nut) treatment were treated with βHB, s-βHB, and ABT-737. (b) Flow cytometry analysis of apoptosis by βHB or s-βHB in radiation (10 Gy)-induced senescent SMC. (c) Quantitation of apoptotic cell and senescent cell after treating βHB and s-βHB in radiation-induced senescent SMC. (d) Representative aorta image of AII-infused mice with post-treatment of ABT-737, βHB and s-βHB. (e) External diameter of abdominal aorta infused with AII and post-treated with ABT-737 βHB and s-βHB. (f) SA-βGal activity assay of the whole aorta infused with AII, and post-treated with ABT-737, KD, or KE. (g) Quantitation of senescent area on aorta of AII-infused mice, and post-treated with KD, KE and ABT-737. (h) TUNEL assay on the abdominal aorta of AII infused mice, and treated with ABT-737, βHB, or s-βHB. SM-α Actin (SMA) and DAPI are co-stained after TUNEL reaction. (i) Caspase 3 activity assay on normal SMCs (NC) treated with βHB, or s-βHB, and ABT-737 comparing to normal cells pretreated with Nutlin-3a. (j) Caspase 3 activity assay on senescent SMCs (SNC) treated with βHB, or s-βHB, and ABT-737 compared to senescent cells pretreated with pifithrin-α. (k) Western blot analysis for p53 and puma expression on abdominal aorta tissue from mice treated with AII or KE. (I) Immunohistochemistry staining for puma expression on abdominal aorta infused by AII and post-treated with KE.
To overcome the anti-apoptotic barrier of senescence cells, senolytics usually target p53/Bcl2 cascades. Moreover, p53 is considered as a barrier to prevent apoptosis in senescence cells. Therefore, it was investigated if βHB-mediated apoptosis is p53 dependent. […] To further validate p53 dependent apoptosis on AAA, p53 activation and puma expression were investigated. […] In addition, inflammatory response accompanying the apoptosis of senescence cells was observed specifically in the abdominal aorta tissue, while systemic inflammation decreased during ketotherapy (FIGS. 10A-F). […] Ketotherapy can lower the blood pressure caused by AII infusion, which is not the case with ABT-737 (FIGS. 10H-J).

## C[C@@H](O)CCOC(=O)C[C@@H](C)O [KE, [(3R)-3-hydroxybutyl] (3R)-3-hydroxybutanoate]
[1]; 20 g/L and 50 g/L in drinking water, day 17 to day 31, FIG. 19B
  incidence of TAD: significantly reduces
[1]; 20 g/L and 50 g/L in drinking water, day 17 to day 31, FIG. 19C
  incidence of AAD: significantly reduces
[1]; high dose 50 g/L, FIG. 19D
  survival rate: significantly increase
CaCl2-induced AAA; FIGS. 5A and 5B
  recovery from CaCl2-induced AAA: Effective recovery
CaCl2-induced AAA; post-treatment after four weeks, FIG. 5C
  AAA progression: inhibited AAA progression
[2]
  metabolic fate (hydrolysis): complete enzymatic hydrolysis to release R-βHB and R-butane-1,3-diol
[3]
  metabolic alterations (body weight, fat mass, blood glucose, TG, liver lipid, insulin resistance): did not cause metabolic changes such as insulin resistance
[4]; FIG. 1D
  aneurysm formation, ultrasound images of identical mouse aorta: reverts aneurysm formation
[4]; FIG. 3H, FIG. 18A
  abdominal aorta stiffness, Pulse Wave Velocity (PWV): ameliorated vascular stiffness; also recorded: reversed aneurysm-associated aortic stiffness
[4]; abdominal aorta, post-treatment, FIG. 3E
  SMC markers (HEXIM1, Calponin 1, SM α-Actin) and dedifferentiation markers (Oct4, MMP2), Western blot: reversed all the markers of dedifferentiation and simultaneously recovered SMC markers
[4]; abdominal versus thoracic PVAT, FIG. 3G
  degenerative markers in PVAT: specifically reverses degenerative markers, col1A1, RUNX2, and PU.1 in abdominal perivascular adipose (PVAT), not in thoracic PVAT
[4]; post-treatment 2 to 4 weeks after 4 weeks AII infusion, C57Bl6 ApoE−/− mice, AAA incidence 60%, FIG. 1A
  recovered proportion of AII-induced AAA: 26%
[4]; post-treatment 2 to 4 weeks, FIG. 1A
  proportion of AII-induced AAA: successfully reduced
[4]; post-treatment of KD and KE, FIG. 1C
  enlarged external diameter of AAA: decreased significantly
[4]; post-treatment, FIG. 3F
  collagen network, Masson's trichrome staining: reconstituted at the perivascular area
[4]; post-treatment, FIGS. 17A-17B
  myofibroblast, SM α-Actin and FSP co-staining in aortic wall: increases
[4]; post-treatment, Western blot and IHC, FIG. 2K
  p53 activation and puma expression on abdominal aorta: activated phosphorylation of p53 and elevated puma expression
[5]
  AII-induced AAA development: strongly inhibited

## CN(C)CC[C@H](CSc1ccccc1)Nc1ccc(S(=O)(=O)NC(=O)c2ccc(N3CCN(Cc4ccccc4-c4ccc(Cl)cc4)CC3)cc2)cc1[N+](=O)[O-] [ABT-737, reference compound]
[6]
  external diameter of the abdominal aorta: significantly reduced
[4]; FIG. 2H
  TUNEL assay, apoptosis of senescent plaque in the aneurysm: induced targeted apoptosis of senescent plaque
[4]; FIG. 3C
  branched elastic fibers, Verhoeff Van Gieson/EVG stain: less branched elastic fibers
[4]; FIG. 3D
  number of elastic layers / elastic recovery: less effective on elastic recovery
[4]; blood clots inside aneurysm plaque, FIG. 3B
  aortic dissection: caused aortic dissection
[4]; injected
  volume of aneurysm plaque: successfully reduced
[4]; injected every other day for two weeks, FIG. 2D
  AAA on whole aorta images: successfully rescued
[4]; injected mice, FIG. 3A
  mice with abdominal rupture resulting in sudden death: 30%
Normal SMCs (NC); after p53 stabilization by Nutlin 3a
  apoptosis in normal cells after p53 stabilization: triggers apoptosis
Normal SMCs (NC); without Nutlin 3a
  apoptosis in normal cells (NC): did not induce apoptosis
